This note sets out measurements from patent US8987250B2 (Gilead Sciences, Inc., priority 2012, dated 2015).

One series deals with HIV-IIIb. Description: Test A: Antiviral Assay in MT4 Cells. It counts as cell-based. Particulars: MT-4 cells infected with HIV-IIIb, 5 days of incubation, CellTiter-Glo, read-out: EC50. Summed up: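 MT-4 cells pre-infected with HIV-IIIb (0.004 m.o.i.) at 37 °C, then exposed to 3-fold serial compound dilutions (10 concentrations, quadruplicate) in RPMI 1640/10% FBS. After 5 days at 37 °C, viability read by CellTiter-Glo luminescence.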

The subject of the next series is human liver microsomes. Kind of series: Test B: Metabolic Stability Assay with Human Liver Microsomes. It counts as in vitro ADME. As to conditions: 1 uM compound, 1 mg/mL human liver microsomal proteins, 37° C., 0-60 minutes; half-life class. From the text:
Test B: Metabolic Stability Assay with Human Liver Microsomes
Effective viral suppression in the HIV infected patient requires that the antiviral drug persists in the patient's body at concentrations exceeding the minimum concentration required to inhibit viral proliferation. One of the factors controlling the drug levels after dosing is metabolic conversion. The liver is one site of drug metabolism. Approximately 60% of marketed drugs are cleared by hepatic metabolism (McGinnity D F et al. (2004) Drug Metab Dispos 32; 1247-1253). Liver microsomes are subcellular fractions which contain membrane bound drug metabolising enzymes. Human liver microsomes provide a convenient and concentrated source of the key liver metabolic enzymes (e.g., cytochromes P450, UDP-glucuronosyltransferases, and many others) and can be used to predict the metabolic stability of drug candidates (e.g., agents).
Cluster tubes containing 500 uL of 1 uM compound with 1 mg/mL human liver microsomal proteins (BD Biosciences, BD452117)/50 mM K-phosphate buffer pH7.4/NADPH regenerating system/and UDP-glucuronosyltransferase cofactors, were incubated on the Precision-2000 workstation at 37° C. for 0, 10, 25, 60 minutes. The reactions were quenched with 100 uL of 0.2% formic acid in 90% ACN; containing 50 nM of an internal standard. The samples were analyzed on LC/MS/MS instrument (Q-Trap). Metabolic stabilities in microsomal fractions and hepatocytes were determined by measuring the rate of disappearance of the compound. Data (% of parent remaining) were plotted on a semi logarithmic scale and fitted using an exponential fit.

[1] abbreviates: Human immunodeficiency virus 1, IIIB, MT4, 120 h, Table 1.
[2] abbreviates: Human immunodeficiency virus 1, IIIB, MT4, 120 h, Table 2.

pEC50: −log10 of the molar value. Read-outs that look alike come from different tables or passages of the source.

Turning to `Cc1cc2nc(-c3cccc(-c4ccc5c(cnn5C)c4)c3)sc2c(-c2ccc3c4c(ccnc24)CCO3)c1[C@H](OC(C)(C)C)C(=O)O` (atropisomer, axis not shown) [Compound 163], in the series on HIV-IIIb (Table 1), the pEC50 was 7.74. In addition, the “Human Microsomal stability” value with human liver microsomes is listed as “C (a human microsomal stability half-life of less than 150 minutes)”.
`COc1cncc(-c2cccc(-c3nc4cc(C)c([C@H](OC(C)(C)C)C(=O)O)c(-c5ccc(Cl)cc5)c4s3)c2)c1` [Compound 104, (S)-2-tert-butoxy-2-(7-(4-chlorophenyl)-2-(3-(5-methoxypyridin-3-yl)phenyl)-5-methylbenzo[d]thiazol-6-yl)acetic acid]: the pEC50 in the series with HIV-IIIb (setting [1]) was 7.38. In addition, the “Human Microsomal stability” value with human liver microsomes was “C (a human microsomal stability half-life of less than 150 minutes)”.
Turning to `Cc1cc2nc(-c3cccc(-c4ccnc(Cl)c4)c3)sc2c(-c2ccc(Cl)cc2)c1[C@H](OC(C)(C)C)C(=O)O` [Compound 107, (S)-2-tert-butoxy-2-(7-(4-chlorophenyl)-2-(3-(2-chloropyridin-4-yl)phenyl)-5-methylbenzo[d]thiazol-6-yl)acetic acid], in the series on HIV-IIIb (setting [1]), the pEC50 was 7.34. The “Human Microsomal stability” value in the series with human liver microsomes is listed as “C (a human microsomal stability half-life of less than 150 minutes)”.
In the case of `Cc1cc2nc(-c3cccc(-c4ccc5c(cnn5C)c4)c3)sc2c(-c2ccc(Cl)cc2)c1[C@H](OC(C)(C)C)C(=O)O` [Compound 109, (S)-2-tert-butoxy-2-(7-(4-chlorophenyl)-5-methyl-2-(3-(1-methyl-1H-indazol-5-yl)phenyl)benzo[d]thiazol-6-yl)acetic acid], the pEC50 in the series with HIV-IIIb (setting [1]) was 7.09. In the series on human liver microsomes, the “Human Microsomal stability” value is on record as “B (a human microsomal stability half-life of less than 300 minutes but greater than or equal to 150 minutes)”.
The matching figures for `Cc1cc2nc(-c3ccnc(-c4ccc5c(cnn5C)c4)c3)sc2c(-c2ccc(Cl)cc2)c1[C@H](OC(C)(C)C)C(=O)O` [Compound 113a, (S)-2-tert-butoxy-2-(7-(4-chlorophenyl)-5-methyl-2-(2-(1-methyl-1H-indazol-5-yl)pyridin-4-yl)benzo[d]thiazol-6-yl)acetic acid]: 7.80 and “A (a human microsomal stability half-life of greater than or equal to 300 minutes)”.
The matching figures for `Cc1cc2nc(-c3cccc(-c4cnn(C(C)(C)C)c4)c3)sc2c(-c2ccc(Cl)cc2)c1[C@H](OC(C)(C)C)C(=O)O` [Compound 141]: 7.11 and “B (a human microsomal stability half-life of less than 300 minutes but greater than or equal to 150 minutes)”.
For `COc1cc(-c2cccc(-c3nc4cc(C)c([C@H](OC(C)(C)C)C(=O)O)c(-c5ccc(Cl)cc5)c4s3)c2)ccn1` [Compound 152], in the series on HIV-IIIb (setting [1]), the pEC50 is 7.34. In addition, the “Human Microsomal stability” value with human liver microsomes was “C (a human microsomal stability half-life of less than 150 minutes)”.
The matching figures for `Cc1cc2nc(-c3cccc(-c4cnn(C)c4)c3)sc2c(-c2ccc(Cl)cc2)c1[C@H](OC(C)(C)C)C(=O)O` [Compound 158]: 7.77 and “C (a human microsomal stability half-life of less than 150 minutes)”.
For the compound `Cc1cc2nc(-c3ccnc(-n4ccc5cnccc5c4=O)c3)sc2c(-c2ccc(Cl)cc2)c1[C@H](OC(C)(C)C)C(=O)O` [Compound 186, (S)-2-tert-butoxy-2-(7-(4-chlorophenyl)-5-methyl-2-(2-(1-oxo-2,6-naphthyridin-2(1H)-yl)pyridin-4-yl)benzo[d]thiazol-6-yl)acetic acid], the pEC50 in the series on HIV-IIIb (setting [2]) is 8.40. Moreover, in the series with human liver microsomes, the “Human Microsomal stability” value is reported as “C (a human microsomal stability half-life of less than 150 minutes)”.
The matching figures for `Cc1cc2nc(-c3ccnc(N4CCN(C(C)C)CC4)n3)sc2c(-c2ccc(Cl)cc2)c1[C@H](OC(C)(C)C)C(=O)O` [Compound 202, (S)-2-tert-butoxy-2-(7-(4-chlorophenyl)-2-(2-(4-isopropylpiperazin-1-yl)pyrimidin-4-yl)-5-methylbenzo[d]thiazol-6-yl)acetic acid]: 8.70 and “A (a human microsomal stability half-life of greater than or equal to 300 minutes)”.
With `Cc1cc2nc(-c3ccc4c(N(C)C)nn(C)c4c3)sc2c(-c2ccc(Cl)cc2)c1[C@H](OC(C)(C)C)C(=O)O` [Compound 206, (S)-2-tert-butoxy-2-(7-(4-chlorophenyl)-2-(3-(dimethylamino)-1-methyl-1H-indazol-6-yl)-5-methylbenzo[d]thiazol-6-yl)acetic acid], in the series with HIV-IIIb (setting [2]), the pEC50 is 7.62. In the series on human liver microsomes, the “Human Microsomal stability” value is given as “C (a human microsomal stability half-life of less than 150 minutes)”.
Turning to `Cc1cc2nc(-c3ccc4c(c3)c(-c3cccnc3)nn4C)sc2c(-c2ccc(Cl)cc2)c1[C@H](OC(C)(C)C)C(=O)O` [Compound 212, (S)-2-tert-butoxy-2-(7-(4-chlorophenyl)-5-methyl-2-(1-methyl-3-(pyridin-3-yl)-1H-indazol-5-yl)benzo[d]thiazol-6-yl)acetic acid], the pEC50 in the series on HIV-IIIb (setting [2]) was 8.22; in the series on HIV-IIIb (Table 1), 6.14. In addition, in the series on human liver microsomes, the “Human Microsomal stability” value is on record as “A (a human microsomal stability half-life of greater than or equal to 300 minutes)”.
For `Cc1cc2nc(-c3ccc4c(c3)c(N3CCN(C)CC3)nn4C)sc2c(-c2ccc(Cl)cc2)c1[C@H](OC(C)(C)C)C(=O)O` [Compound 257, (S)-2-tert-butoxy-2-(7-(4-chlorophenyl)-5-methyl-2-(1-methyl-3-(4-methylpiperazin-1-yl)-1H-indazol-5-yl)benzo[d]thiazol-6-yl)acetic acid], the pEC50 with HIV-IIIb (setting [2]) was 8.30. Besides, the “Human Microsomal stability” value in the series on human liver microsomes is reported as “A (a human microsomal stability half-life of greater than or equal to 300 minutes)”.
The matching figures for `Cc1cc2nc(N3CCN(C)C(c4ccc5c(cnn5C)c4)C3)sc2c(-c2ccc(Cl)cc2)c1[C@H](OC(C)(C)C)C(=O)O` (stereo partly drawn) [Compound 278, (2S)-2-tert-butoxy-2-(7-(4-chlorophenyl)-5-methyl-2-(4-methyl-3-(1-methyl-1H-indazol-5-yl)piperazin-1-yl)benzo[d]thiazol-6-yl)acetic acid]: 8.40 and “B (a human microsomal stability half-life of less than 300 minutes but greater than or equal to 150 minutes)”.
For `Cc1cc2nc(-c3ccc4c(c3)ncn4Cc3ccccc3)sc2c(-c2ccc(Cl)cc2)c1[C@H](OC(C)(C)C)C(=O)O` [Compound 285, (S)-2-(2-(1-benzyl-1H-benzo[d]imidazol-5-yl)-7-(4-chlorophenyl)-5-methylbenzo[d]thiazol-6-yl)-2-tert-butoxyacetic acid], the “Human Microsomal stability” value in the series with human liver microsomes is on record as “A (a human microsomal stability half-life of greater than or equal to 300 minutes)”.
For the compound `Cc1cc2nc(-c3ccnc(N4CC(N(C)C)C4)n3)sc2c(-c2ccc(Cl)cc2)c1[C@H](OC(C)(C)C)C(=O)O` [Compound 333, (S)-2-tert-butoxy-2-(7-(4-chlorophenyl)-2-(2-(3-(dimethylamino)azetidin-1-yl)pyrimidin-4-yl)-5-methylbenzo[d]thiazol-6-yl)acetic acid], in the series on HIV-IIIb (setting [2]), the pEC50 is 8.52. Besides, in the series with human liver microsomes, the “Human Microsomal stability” value is listed as “A (a human microsomal stability half-life of greater than or equal to 300 minutes)”.
Consider `Cc1cc2nc(-c3ccnc(-c4cnc5[nH]cc(C)c5c4)c3)sc2c(-c2ccc(Cl)cc2)c1[C@H](OC(C)(C)C)C(=O)O` [Compound 498, (S)-2-tert-butoxy-2-(7-(4-chlorophenyl)-5-methyl-2-(2-(3-methyl-1H-pyrrolo[2,3-b]pyridin-5-yl)pyridin-4-yl)benzo[d]thiazol-6-yl)acetic acid], for which the pEC50 with HIV-IIIb (setting [2]) was 7.47.
As for `CC(=O)N(C)c1ccc(-c2cc(-c3nc4cc(C)c([C@H](OC(C)(C)C)C(=O)O)c(-c5ccc(Cl)cc5)c4s3)ccn2)cc1` [Compound 499, (S)-2-(tert-butoxy)-2-(7-(4-chlorophenyl)-5-methyl-2-(2-(4-(N-methylacetamido)phenyl)pyridin-4-yl)benzo[d]thiazol-6-yl)acetic acid], the pEC50 in the series on HIV-IIIb (setting [2]) was 7.92.
With “(S)-2-tert-butoxy-2-(7-(4-chlorophenyl)-2-(3-(4,4-dimethylpiperazin-1-ium-1-yl)-1-methyl-1H-indazol-5-yl)-5-methylbenzo[d]thiazol-6-yl)acetate [Compound 494]”, the pEC50 with HIV-IIIb (Table 2) was 5.54.
